Measured values reported in ChEMBL document CHEMBL2321772 (J Med Chem, 2013).

What was measured:
physchem = conditions: octanol/water
[1] = Clearance in rat; format: ADME, organism-based; conditions: in vivo
[2] = Half life in dog; format: ADME, organism-based, Canis lupus familiaris; conditions: in vivo
[3] = Volume of distribution at steady state in dog; format: ADME, organism-based, Canis lupus familiaris; conditions: in vivo, read-out: Vdss
[4] = Intrinsic clearance in rat hepatocytes assessed per million of cells; format: ADME, cell-based, Hepatocyte; conditions: read-out: CLH
[5] = Intrinsic clearance in dog hepatocytes assessed per million of cells; format: ADME, cell-based, Canis lupus familiaris, Hepatocyte; conditions: read-out: CLH
[6] = Oral bioavailability in rat; format: ADME, organism-based; conditions: in vivo
[7] = Half life in mouse; format: ADME, organism-based; conditions: in vivo
in vitro = conditions: human, hepatocytes
[8] = Clearance in mouse; format: ADME, organism-based; conditions: in vivo
[9] = Half life in rat; format: ADME, organism-based; conditions: in vivo
[10] = Oral bioavailability in dog; format: ADME, organism-based, Canis lupus familiaris; conditions: in vivo
[11] = Intrinsic clearance in mouse hepatocytes assessed per million of cells; format: ADME, cell-based, Hepatocyte; conditions: read-out: CLH
[12] = Oral bioavailability in mouse; format: ADME, organism-based; conditions: in vivo

SMILES	logD (physchem)	further results
C[C@@H](NC(=O)C1(N)CCN(c2ncnc3[nH]ccc23)CC1)c1ccc(Cl)cc1	3.3	–
C[C@H](NC(=O)C1(N)CCN(c2ncnc3[nH]ccc23)CC1)c1ccc(Cl)cc1	2.7	–
NC1(C(=O)NCc2ccc(Cl)cc2)CCN(c2ncnc3[nH]ccc23)CC1	–	clearance [1]: 48 mL/min/kg; half-life [2]: 3 h; Vd [3]: 0.6 L/kg; hepatocyte CLint [4]: 19 µL/min/1e6 cells; hepatocyte CLint [5]: 6 µL/min/1e6 cells; bioavailability [6]: 56%; half-life [7]: 0.8 h; hepatocyte CLint (in vitro): 15 µL/min/1e6 cells; clearance [8]: 42 mL/min/kg; half-life [9]: 2.3 h; bioavailability [10]: 70%; hepatocyte CLint [11]: 10 µL/min/1e6 cells; bioavailability [12]: 88%
NC1(C(=O)N[C@@H](CCN2CCCCC2)c2ccc(Cl)cc2)CCN(c2ncnc3[nH]ccc23)CC1 (racemic)	2.4	–
NC(=O)C(NC(=O)C1(N)CCN(c2ncnc3[nH]ccc23)CC1)c1ccc(Cl)cc1 (racemic)	2.2	–
CN(C)C(=O)CC(NC(=O)C1(N)CCN(c2ncnc3[nH]ccc23)CC1)c1ccc(Cl)cc1 (racemic)	2.4	–
CC(=O)NCC(NC(=O)C1(N)CCN(c2ncnc3[nH]ccc23)CC1)c1ccc(Cl)cc1 (racemic)	2.4	–
NC1(C(=O)NC(CS(N)(=O)=O)c2ccc(Cl)cc2)CCN(c2ncnc3[nH]ccc23)CC1 (racemic)	2.2	–
CS(=O)(=O)NCC(NC(=O)C1(N)CCN(c2ncnc3[nH]ccc23)CC1)c1ccc(Cl)cc1 (racemic)	2.1	–
CS(=O)(=O)NCCC(NC(=O)C1(N)CCN(c2ncnc3[nH]ccc23)CC1)c1ccc(Cl)cc1 (racemic)	2.2	–
NC1(C(=O)NC(CO)c2ccc(Cl)cc2)CCN(c2ncnc3[nH]ccc23)CC1 (racemic)	2.4	–
NC1(C(=O)NC(CCCO)c2ccc(Cl)cc2)CCN(c2ncnc3[nH]ccc23)CC1 (racemic)	2.8	–
COCCC(NC(=O)C1(N)CCN(c2ncnc3[nH]ccc23)CC1)c1ccc(Cl)cc1 (racemic)	3	–
CCC(NC(=O)C1(N)CCN(c2ncnc3[nH]ccc23)CC1)c1ccc(Cl)cc1 (racemic)	3.5	–
NC1(C(=O)NC(c2ccc(Cl)cc2)C2CC2)CCN(c2ncnc3[nH]ccc23)CC1 (racemic)	3.4	–
NC1(C(=O)NC(c2ccccc2)c2ccc(Cl)cc2)CCN(c2ncnc3[nH]ccc23)CC1 (racemic)	4.1	–
CC(NC(=O)C1(N)CCN(c2ncnc3[nH]ccc23)CC1)c1ccccc1 (racemic)	2.2	–
CC(NC(=O)C1(N)CCN(c2ncnc3[nH]ccc23)CC1)c1ccc(F)cc1 (racemic)	2.4	–
CC(NC(=O)C1(N)CCN(c2ncnc3[nH]ccc23)CC1)c1ccccn1 (racemic)	1.3	–
CC(NC(=O)C1(N)CCN(c2ncnc3[nH]ccc23)CC1)c1ccc(S(C)(=O)=O)cc1 (racemic)	1	–
COc1ccc(C(C)NC(=O)C2(N)CCN(c3ncnc4[nH]ccc34)CC2)cc1OC (racemic)	1.8	–
CN(C)CCCC(NC(=O)C1(N)CCN(c2ncnc3[nH]ccc23)CC1)c1ccc(Cl)cc1 (racemic)	1.4	–
NC1(C(=O)NC(CCCN2CCCC2)c2ccc(Cl)cc2)CCN(c2ncnc3[nH]ccc23)CC1 (racemic)	1.3	–
NC1(C(=O)NC(CCCN2CCOCC2)c2ccc(Cl)cc2)CCN(c2ncnc3[nH]ccc23)CC1 (racemic)	2.7	–
CC(NC(=O)C1(N)CCN(c2ncnc3[nH]ccc23)CC1)c1ccc(Cl)cc1 (racemic)	2.7	–
